Like-named read-outs stand apart in the source and are kept apart here. Non-standard residues stand in square brackets, D forms with d. Residues, ends and D or L forms follow the SMILES beside them. No end group written: not given here. Hyp = O=C(O)[C@@H]1C[C@@H](O)CN1
Legend:
Caco-2 cell monolayer = details: cited from earlier work
[1] = Oral administration in rats, LC-MS/MS identification of peptides in plasma; details: for Identification in rat plasma, 0.5 h: 0.5 h after oral administration of GPXGPPGPGP; for Identification in rat plasma, 0.5 h / Identification in rat plasma, 1 h: blood from abdominal aorta, ethanol protein precipitation; for Identification in rat plasma, 1 h: 1 h after oral administration of GPXGPPGPGP; for Identified in plasma at 0.5 h: rat plasma 0.5 h after oral administration of GPXGPPGPGP; for Identified in plasma at 0.5 h / Identified in plasma at 1 h: in words; for Identified in plasma at 1 h: rat plasma 1 h after oral administration of GPXGPPGPGP
Experimental: (§1) Blood was collected at 0.5 and 1 h, after oral administration, from the abdominal aorta and centrifuged (3000× g, 5 min) to acquire plasma. Next, the proteins were precipitated by adding three volumes of 100% ethanol and removed using centrifugation. A volume of 6 μL of supernatant were injected into the LC-MS/MS system, as previously described [16].

DPP-IV = test system: DPP-IV; design: method as in PMID 24650211; details: in words; cited from earlier work
[2] = in vivo, po
Experimental: as §1

Compound: GA[Hyp]GL[Hyp]GP
- Passage through the Caco-2 cell monolayer (Caco-2 cell monolayer): pass through the Caco-2 cell monolayer by paracellular diffusion

Compound: O=C(O)CNC(=O)[C@@H]1C[C@@H](O)CN1C(=O)[C@@H]1CCCN1 [PXG, Pro-Hyp-Gly] (H-Pro-[Hyp]-Gly-OH)
- Identification in rat plasma, 0.5 h [1]: +
- Identification in rat plasma, 1 h [1]: −
- Identified in plasma at 0.5 h [1]: identified in plasma at 0.5 h
- Identified in plasma at 1 h [1]: not at 1 h

Compound: O=C(O)[C@@H]1C[C@@H](O)CN1C(=O)[C@@H]1CCCN1 [PX, Pro-Hyp] (H-Pro-[Hyp]-OH)
- Inhibitory effect against DPP-IV (DPP-IV): not inhibitory against DPP-IV
- Identification in rat plasma, 0.5 h [1]: +
- Identification in rat plasma, 1 h [1]: −
- Identified in plasma at 0.5 h [1]: identified in plasma at 0.5 h
- Identified in plasma at 1 h [1]: not at 1 h

Compound: NCC(=O)N1CCC[C@H]1C(=O)N1C[C@H](O)C[C@H]1C(=O)O [GPX, Gly-Pro-Hyp] (H-Gly-Pro-[Hyp]-OH)
- Inhibitory effect against DPP-IV (DPP-IV): inhibitory effect against DPP-IV
- Identification in rat plasma, 0.5 h [2]: +
- Identification in rat plasma, 1 h [2]: −
- Identified in plasma at 1 h ([2]; rat): not at 1 h
